The species named for series [1] is Canis familiaris. Nature of the series: Half life in male dog. In kind it is ADME, organism-based, Canis lupus familiaris. The note with it: in vivo.
A short description of series [2]: Bioavailability in female rat at 20 mg/kg, po and 2 mg/kg, iv. In kind it is ADME, organism-based. The note with it: in vivo.
Series [3] is filed under the species Canis familiaris. Nature of the series: Volume of distribution in male dog. To be noted: in vivo. In kind it is ADME, organism-based, Canis lupus familiaris.
The subject of the next series is A549. Nature of the series: Inhibition of A549 cell migration by microdroplet migration assay. To be noted: Homo sapiens. In kind it is functional, cell-based.
For series [4], the target named is Proto-oncogene tyrosine-protein kinase Src (Homo sapiens, UniProt P12931).
Description: Inhibition of human c-Src in NIH3T3 cells
Series [5] is described as follows: Volume of distribution in female rat at 20 mg/kg, po and 2 mg/kg, iv. In kind it is ADME, organism-based. To be noted: in vivo, read-out: Vdss.
Series [6] in a line: AUC (0-24h) in mouse at 20 mg/kg, po. In kind it is ADME, organism-based. Further details: time < 24 hr, dose 20 mg/kg, route oral. To be noted: plasma.
In series [7] the target is Vascular endothelial growth factor receptor 2 (Homo sapiens, UniProt P35968). Nature of the series: Inhibition of KDR.
The nature of series [8]: Bioavailability in male dog. In kind it is ADME, organism-based, Canis lupus familiaris. To be noted: in vivo.
Series [9] is described as follows: Clearance in female rat at 20 mg/kg, po and 2 mg/kg, iv. In kind it is ADME, organism-based. The note with it: in vivo.

The results in this text go back to ChEMBL document CHEMBL1137334 (J Med Chem, 2006).

Chain of Proto-oncogene tyrosine-protein kinase Src (P12931 2-536 limits assumed): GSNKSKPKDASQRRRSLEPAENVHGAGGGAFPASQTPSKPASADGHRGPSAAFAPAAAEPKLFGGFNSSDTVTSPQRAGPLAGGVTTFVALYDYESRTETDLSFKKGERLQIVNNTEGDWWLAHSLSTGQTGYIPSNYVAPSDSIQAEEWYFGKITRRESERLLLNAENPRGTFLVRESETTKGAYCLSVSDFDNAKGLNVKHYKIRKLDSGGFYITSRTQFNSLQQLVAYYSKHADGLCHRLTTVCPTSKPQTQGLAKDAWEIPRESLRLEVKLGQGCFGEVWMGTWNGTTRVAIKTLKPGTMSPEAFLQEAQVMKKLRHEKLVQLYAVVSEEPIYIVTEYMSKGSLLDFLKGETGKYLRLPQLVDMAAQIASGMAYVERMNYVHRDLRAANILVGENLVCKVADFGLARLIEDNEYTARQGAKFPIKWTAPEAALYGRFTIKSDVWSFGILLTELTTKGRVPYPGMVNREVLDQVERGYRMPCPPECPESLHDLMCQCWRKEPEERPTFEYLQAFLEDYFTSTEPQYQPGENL
Chain of Vascular endothelial growth factor receptor 2 (P35968 whole entry): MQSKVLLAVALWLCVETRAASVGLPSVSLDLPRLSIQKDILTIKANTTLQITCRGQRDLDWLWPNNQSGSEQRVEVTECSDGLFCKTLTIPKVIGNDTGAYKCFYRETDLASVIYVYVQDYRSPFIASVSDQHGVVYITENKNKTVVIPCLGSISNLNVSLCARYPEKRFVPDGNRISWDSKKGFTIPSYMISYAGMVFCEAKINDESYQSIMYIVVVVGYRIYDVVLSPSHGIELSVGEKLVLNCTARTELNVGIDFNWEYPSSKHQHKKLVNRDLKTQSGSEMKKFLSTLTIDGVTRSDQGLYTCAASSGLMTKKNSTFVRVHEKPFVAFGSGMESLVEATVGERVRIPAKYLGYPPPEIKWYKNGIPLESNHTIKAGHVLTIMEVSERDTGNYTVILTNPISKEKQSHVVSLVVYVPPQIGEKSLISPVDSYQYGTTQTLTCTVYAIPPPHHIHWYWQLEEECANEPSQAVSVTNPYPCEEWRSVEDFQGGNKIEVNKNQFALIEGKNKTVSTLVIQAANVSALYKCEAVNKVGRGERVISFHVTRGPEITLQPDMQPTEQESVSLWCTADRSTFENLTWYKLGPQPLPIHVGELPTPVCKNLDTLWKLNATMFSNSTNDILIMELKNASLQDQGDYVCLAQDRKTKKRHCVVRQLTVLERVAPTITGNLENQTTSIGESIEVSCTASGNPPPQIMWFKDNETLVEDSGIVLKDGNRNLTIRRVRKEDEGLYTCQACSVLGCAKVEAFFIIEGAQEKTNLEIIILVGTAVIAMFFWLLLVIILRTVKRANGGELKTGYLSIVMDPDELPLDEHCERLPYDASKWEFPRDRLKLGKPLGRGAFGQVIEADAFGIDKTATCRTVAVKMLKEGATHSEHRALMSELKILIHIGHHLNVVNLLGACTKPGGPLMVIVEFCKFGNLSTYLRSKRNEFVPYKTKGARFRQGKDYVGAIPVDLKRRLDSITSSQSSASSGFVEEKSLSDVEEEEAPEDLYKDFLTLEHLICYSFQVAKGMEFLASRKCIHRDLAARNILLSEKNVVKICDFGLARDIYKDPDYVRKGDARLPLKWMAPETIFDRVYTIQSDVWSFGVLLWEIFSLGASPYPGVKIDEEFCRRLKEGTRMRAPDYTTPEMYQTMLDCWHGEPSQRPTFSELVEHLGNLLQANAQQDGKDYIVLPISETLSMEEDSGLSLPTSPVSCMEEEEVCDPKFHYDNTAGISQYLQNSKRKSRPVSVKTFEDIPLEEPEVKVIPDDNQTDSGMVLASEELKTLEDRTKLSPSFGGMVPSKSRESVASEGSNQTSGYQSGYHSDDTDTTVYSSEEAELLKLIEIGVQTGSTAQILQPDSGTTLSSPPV

For the molecule `CN1CCC(COc2cc(OC3CCOCC3)c3c(Nc4c(Cl)ccc5c4OCO5)ncnc3c2)CC1`, in the series filed under Canis familiaris [1], the T1/2 was 22 h. The bioavailability is 93% in [2] and 57% in series [8]. In the series listed under Canis familiaris [3], this molecule returned a Vdss of 38 L/kg. Further, the IC50 turned out to be 300 nM in the series on A549, 6 nM in [4] and 2000 nM in series [7]. In addition, the Vd in series [5] came out at 23.4 L/kg. The molecule further registered an AUC(0-t) at 24 h in series [6] of 31000 ng·h/mL. Also, in series [9], the clearance was 132 mL/min/kg.
